Measurements from ChEMBL document CHEMBL1201862, “PubChem BioAssay data set” (2004).
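48-hour exposure; five concentrations; linearly interpolated endpoints. GI50 marks 50% less growth.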 Active and inactive are the calls of the source. Cut-off read from the data, not from the text of the source: active = GI50 up to about 1.1 µM and inactive = higher.

Key:
Experiment in all cases: DTP human tumour cell line panel, 48 h
[1] = system: SK-MEL-28
[2] = system: SK-OV-3
[3] = system: M19-MEL
[4] = system: OVCAR-3
[5] = system: NCI-H23
[6] = system: UACC-257
[7] = system: OVCAR-8
[8] = system: SNB-19
[9] = system: HCT-15
[10] = system: HT-29
[11] = system: CCRF-CEM
[12] = system: HOP-92
[13] = system: NCI-H226
[14] = system: SN12C
[15] = system: HCC 2998
[16] = system: MDA-N
[17] = system: HOP-62
[18] = system: COLO 205
[19] = system: CAKI-1
[20] = system: RPMI-8226

COc1ccc2nc3cc(Cl)ccc3c(NCCCN(CCCl)CCCl)c2c1
GI50 [1]: 197 nM (active) | GI50 [2]: 48.4 nM (active) | GI50 [3]: 44.3 nM (active) | GI50 [4]: 43.2 nM (active) | GI50 [5]: 11.6 nM (active) | GI50 [6]: 122 nM (active) | GI50 [7]: 12.5 nM (active) | GI50 [8]: 22.5 nM (active) | GI50 [9]: 25.3 nM | GI50 [10]: 11.9 nM (active) | GI50 [11]: < 10 nM (active) | GI50 [12]: 12.6 nM (active) | GI50 [13]: 38.5 nM (active) | GI50 [14]: 14 nM (active) | GI50 [15]: 59.6 nM (active) | GI50 [16]: 31.8 nM (active) | GI50 [17]: 30.1 nM (active) | GI50 [18]: < 10 nM (active) | GI50 [19]: < 10 nM (active) | GI50 [20]: < 10 nM (active)
